pIC50: −log10 of the molar value.
Tests used:
[1] = system: P-selectin; assay: ELISA: inhibition of P-selectin-IgG chimera binding to 2,3 sLe^x glycolipid; parameters: species or system human; details: inhibition of binding to 2,3 sLex glycolipid
Text: (§1) An ELISA assay is preferably used that employs recombinant fusion proteins composed of extracellular portions of the human selectins joined to human immunoglobulin heavy chain CH3, CH2, and hinge regions. See, for example, Walz et al., Science (1990) 250:1132; Aruffo et al., Cell (1991) 67:35; Aruffo et al., Proc. Natl. Acad. Sci. USA. (1992) 89:2292. The assay is well known in the art, and generally consists of the following three steps:
(§2) I. 2,3 sLe^x glycolipid (25 picomole/well) was transferred into microtiter wells as solutions and then evaporated off. Excess, which remained unattached, was washed off with water. The wells were then blocked with 5% BSA at room temperature for an hour and then washed with PBS containing 1 mM calcium.
(§3) II. Preparation of "multivalent" receptor of the Selectin-lgG chimera was carried out by combining the respective chimera (1 μg/mL) with biotin labelled goat F(ab')2 anti-human IgG (Fc specific) and streptavidin-alkaline phosphatase diluted 1:1000 in 1% BSA-PBS (1 mM calcium) and incubating at 37° C. for 15 min. This allowed the soluble multivalent receptor complex to form. III. Potential inhibitors such as the compounds of formula I or II were allowed to react with the soluble receptor at 37° C. for 45 min. This test assumes that optimal binding, between the soluble phase receptor complex and the inhibitor (non natural ligand), would have occurred within this time frame. This solution was then placed in the microtiter wells that were prepared in step I. The plate was incubated at 37° C. for 45 minutes to allow the soluble receptor to bind to its natural ligand. In the presence of a strong inhibitor only a few receptors should be free to bind to the microtiter plate coated with the natural ligand.
(§4) The positive control is the signal produced by the soluble receptor when it is allowed to react with 2,3 sLe^x glycolipid in the microtiter wells in the absence of any inhibitor. This positive control was considered 100% binding. The signal produced by the receptor that had been previously treated with an inhibitor (recorded as O.D.), was divided by the signal produced by the positive control and multiplied by 100 to calculate the % receptor bound to the well in the presence of the inhibitor. The reciprocal of this number is the % inhibition.
as §1, with “was employed” for “is preferably used”, “uses” for “employs”, “USA” for “USA.”
(§5) II. Preparation of "multivalent" receptor of the Selectin-IgG chimera was carried out by combining the respective chimera 1 μg/ml) with biotin labelled goat F(ab')2 anti-human IgG (Fc specific) and streptavidin-alkaline phosphatase diluted 1:1000 in 1% BSA-PBS (1 mM calcium) and incubating at 37° C. for 15 min. This allowed the soluble multivalent receptor complex to form.
(§6) III. Potential inhibitors such as compounds of formula I or II were allowed to react with the soluble receptor at 37° C. for 45 min. This test assumes that optimal binding, between the soluble phase receptor complex and the inhibitor (non natural ligand), would have occurred within this time frame. This solution was then placed in the microtiter wells that were prepared in step I. The plate was incubated at 37° C. for 45 minutes to allow the soluble receptor to bind to its natural ligand. In the presence of a strong inhibitor only a few receptors should be free to bind to the microtiter plate coated with the natural ligand.
(§7) The positive control is the signal produced by the soluble receptor when it is allowed to react with 2,3 sLe^x glycolipid in the microtiter wells in the absence of any inhibitor. This was considered 100% binding. […]

[2] = system: L-selectin; assay: ELISA: inhibition of L-selectin-IgG chimera binding to 2,3 sLe^x glycolipid; parameters: species or system human
Text: as §1, §2, §3, §4
as §1, with “was employed” for “is preferably used”, “uses” for “employs”, “USA” for “USA.”
as §5, §6, §7

[3] = system: neutrophil migration into the peritoneum; assay: Murine thioglycollate induced peritonitis: neutrophil migration to the peritoneal cavity; format: in vivo, mouse (Swiss Webster); details: mice, tail vein injection, 3 h after thioglycollate, FIG. 7(a) and (b)
Text: The efficaciousness of 7 and 10 was shown using a murine thioglycollate induced peritonitis model. The assay materials and methods are known in the art, or are generally described by Lewinsohn, D. et al., J. Immun., 138:4313-4321 (1987), or Watson, S. et al., Nature 349:164-166 (1991). This assay measures the ability of the compounds to inhibit neutrophil migration to the peritoneal cavity, the migration being initiated by the presence of thioglycollate in the peritoneal cavity. Thioglycollate is a known and effective inflammatory agent that causes neutrophil migration into the mouse peritoneum when it is administered intraperitoneally. Lewinsohn, D. et al., J. Immun. (1987) 138:4313-4321. Briefly, female Swiss Webster mice weighing about 25 grams were injected in the tail vein with 200 μl of phosphate buffered saline (PBS) with or without the appropriate compound. The pH of the solutions was adjusted to neutrality by the addition of either NaOH or HCL and sterilized by filtration through a 0.2 μ filter. Immediately following injection with the appropriate compound or PBS, the mice were injected intraperitoneally with 1 ml of thioglycollate medium prepared as described by the manufacturer, BBL. Three hours following injection of the thioglycollate solution the mice were sacrificed by CO2 asphyxiation, and the number of cells in the peritoneum removed by lavage with 5 ml of heparinized (5 U/ml) 0.9% sodium chloride solution containing 0.1% bovine serum albumin. Cell number was determined using a Coulter Counter. The cells were prepared for counting by diluting the lavage fluid with 1:50 of a commercial physiological isotonic solution, Isoton II, and the cells lysed by adding S/P Lysing and Hemoglobin Reagent (1:100 final dilution). Cell nuclei were counted in a sized window with lower and upper limits set at 3.9 and 5.7 μm, respectively.

[4] = system: E-selectin; assay: ELISA: inhibition of E-selectin-IgG chimera binding to 2,3 sLe^x glycolipid; parameters: species or system human; details: inhibition of binding to 2,3 sLex glycolipid
Text: as §1, §2, §3, §4
as §1, with “was employed” for “is preferably used”, “uses” for “employs”, “USA” for “USA.”
as §5, §6, §7

pIC50 [1]: ~3.30
pIC50 ([2]; inhibition of binding to 2,3 sLex glycolipid): 2.52 to 2.70
pIC50 [4]: 2.52 to 2.70
Compound: CC(OCCCCCCOC1O[C@@H](C)[C@@H](O)[C@@H](O)[C@@H]1O)C(=O)O (stereo partly drawn) [Compound 10, 1-O-(α-β-L-Fucopyranosyl)-6-O-[(R,S)-1-Carboxyethyl]-Hexane]
inhibition of L-selectin binding to 2,3 sLe^x glycolipid ([2]; FIG. 5 and FIG. 6, result in words): at all four concentrations of the compound tested there is significant inhibitory activity
inhibit neutrophil migration into the peritoneum [3]: inhibit neutrophil migration into the peritoneum

From patent publication US5658880A, “Sialic acid/fucose based medicaments” (Glycomed Incorporated, priority 1994, dated 1997)
